Patent publication US20030087906A1, “NITROGEN SUBSTITUTED BIARYL PURINE DERIVATIVES AS POTENT ANTIPROLIFERATIVE AGENTS” (priority 2001, published 2003)
“And” between values parts separate entries of the source, which are not always exact repeats. Equal entries are not always repeated.

Assays:
HeLa S-3 cells = test: Inhibition of cell growth of HeLa cells (SRB); format: cell-based, human; settings: 2 days of treatment, replicate experiments
Experimental: Growth inhibition (GI50) values were measured with HeLa S-3 cells selected for growth on plastic. […] One day later, a control plate was fixed by addition of TCA to 5%. After five rinses with tap water the plate was air dried and stored at 4° C. Test compounds were added to the remaining plates at 10-fold dilutions between 0.01 and 100 μM. Two days later all plates were fixed as described above. Cells were then stained by the addition of 100 μl per well of 0.4% sulforhodamine B (SRB) in 1% acetic acid for 30 min at 4° C. Wells were then quickly rinsed 5×with acetic acid (1%) and allowed to air dry. The SRB was then solubilized by the addition of 100 μl per well of unbuffered 10 mM Tris base. Dye was quantified by measuring absorbance at 490 nm on a Molecular Devices kinetic microplate reader. Growth at each inhibitor concentration relative to the untreated control was calculated according to the following equation: percent growth=100×(T−To)/(C−To), where T was the average optical density (OD) of the test wells after 2 days of treatment, To was the average OD of the wells in the control plate on day 0 and C was the average OD of untreated wells. Plots of percent growth versus inhibitor concentration were used to determine the GI50.

[1] = system: Tumor Cells in Hollow Fibers; test: NCI Hollow Fiber Assay (in vivo evaluation); settings: for IP Score: IP fibers; for SC score: SC fibers
CyclinA/cdk2 = CyclinA/cdk2 (Homo sapiens, UniProt P24941); test: CyclinA/cdk2 protein kinase assay (histone H1 phosphorylation); settings: IC50 CyclinA/cdk2, complex immunopurified from HeLa cells; 15 μM ATP; replicate experiments
CyclinE/cdk2 = CyclinE/cdk2 (Homo sapiens, UniProt P24941); test: CyclinE/cdk2 protein kinase assay (histone H1 phosphorylation); settings: IC50 CyclinE/cdk2, complex immunopurified from HeLa cells; 15 μM ATP; replicate experiments

Structure (SMILES) | GI50 (HeLa S-3 cells; Homo sapiens, HeLa S3, 48 h) | GI50 (HeLa S-3 cells) | also measured
CC[C@H](CO)Nc1nc(NCc2ccc(-c3ccc(C(O)CO)cc3)cc2)c2ncn(C(C)C)c2n1 (some centres unmarked) [Compound 34] | 7000 nM | – | –
CCCN[C@H]1CC[C@H](Nc2nc(NCc3ccc(-c4cc(C)cc(C)c4)cc3)c3ncn(C(C)C)c3n2)CC1 [Compound 151] | 800 nM | 600 nM | –
CC(=O)N[C@H]1CC[C@H](Nc2nc(NCc3ccc(-c4cccc(Cl)c4)cc3)c3ncn(C(C)C)c3n2)CC1 [Compound 110] | – | 20 nM | Cell Types Killed [1]: OVCAR-3; IP Score [1]: 14; SC score [1]: 0; IC50 (CyclinA/cdk2): 600 nM; IC50 (CyclinE/cdk2): 2000 nM
CC(=O)NCCCCNc1nc(NCc2ccc(-c3ccccc3)cc2)c2ncn(C(C)C)c2n1 [Compound 214] | 5000 nM | – | –
CC(C)n1cnc2c(NCc3cccc(-c4ccsc4)c3)nc(N[C@H]3CC[C@H](NC(=O)OC(C)(C)C)CC3)nc21 [Compound 130] | – | > 10000 nM | –
CC(=O)N[C@H]1CC[C@H](Nc2nc(NCc3ccc(-c4cccc(F)c4)nc3)c3ncn(C(C)C)c3n2)CC1 [Compound 188] | – | 200 nM and 70 nM | –
CC(C)n1cnc2c(NCc3ccc(-c4ccc(Cl)s4)cc3)nc(N[C@H]3CC[C@H](N)CC3)nc21 [Compound 264] | 300 nM | 500 nM | –
CC(C)n1cnc2c(NCc3ccc(-c4cccs4)nc3)nc(N[C@H]3CC[C@H](N)CC3)nc21 [Compound 199] | – | 200 nM and 90 nM | –
CC[C@H](CO)Nc1nc(NCc2ccc(-c3cccc(N)c3)cc2)c2ncn(C(C)C)c2n1 [Compound 36] | 20000 nM | – | –
CC(C)n1cnc2c(NCc3ccc(-c4ccccc4)cc3)nc(NC[C@H](C)N)nc21 [Compound 107] | – | – | IC50 (CyclinA/cdk2): 1000 nM and 4000 nM; IC50 (CyclinE/cdk2): 2000 nM
CC(=O)N[C@H]1CC[C@H](Nc2nc(NCc3ccc(-c4ccc(C)s4)cc3)c3ncn(C(C)C)c3n2)CC1 [Compound 158] | – | 600 nM | –
CC(Nc1nc(N[C@H]2CC[C@H](N)CC2)nc2c1ncn2C(C)C)c1ccc(-c2ccsc2)cc1 (some centres unmarked) [Compound 257] | 3000 nM | – | –
CC(=O)N[C@H]1CC[C@H](Nc2nc(NCc3ccc(-c4ccc(C)cc4)cc3)c3ncn(C(C)C)c3n2)CC1 [Compound 97] | 3000 nM | – | IC50 (CyclinA/cdk2): > 10000 nM; IC50 (CyclinE/cdk2): 3000 nM
CC(C)n1cnc2c(NCc3ccc(-c4ccco4)cc3)nc(N[C@H]3CC[C@H](N)CC3)nc21 [Compound 181] | 40 nM | – | –
CC(=O)N[C@H]1CC[C@H](Nc2nc(NCc3ccc(-c4ccc(Cl)s4)cc3)c3ncn(C(C)C)c3n2)CC1 [Compound 265] | 300 nM | – | –
CC(=O)N[C@H]1CC[C@H](Nc2nc(NCc3ccc(-c4ccco4)cc3)c3ncn(C(C)C)c3n2)CC1 [Compound 182] | 300 nM | – | –
CC(=O)N[C@H]1CC[C@H](Nc2nc(NCCOc3ccc(-c4ccccc4)cc3)c3ncn(C(C)C)c3n2)CC1 [Compound 249] | > 10000 nM | – | –
CC(=O)N[C@H]1CC[C@H](Nc2nc(NCc3ccc(-c4ccoc4)cc3)c3ncn(C(C)C)c3n2)CC1 [Compound 165] | – | 200 nM and 100 nM | –
Cc1csc(-c2ccc(CNc3nc(N[C@H]4CC[C@H](N)CC4)nc4c3ncn4C(C)C)cc2)c1 [Compound 160] | 200 nM | – | –
CC(C)n1cnc2c(NCc3ccc(-c4cccc(F)c4)nc3)nc(N[C@H]3CC[C@H](N)CC3)nc21 [Compound 187] | 50 nM | 30 nM | –
CC(=O)N[C@H]1CC[C@H](Nc2nc(NCCc3ccc(-c4ccccc4)cc3)c3ncn(C(C)C)c3n2)CC1 [Compound 240] | – | 8000 nM | –
CC(C)n1cnc2c(NCc3cccc(-c4ccccc4)c3)nc(N[C@H]3CC[C@H](NC(=O)OC(C)(C)C)CC3)nc21 [Compound 133] | – | > 10000 nM | –
CCCNCCNc1nc(NCc2ccc(-c3ccccc3)cc2)c2ncn(C(C)C)c2n1 [Compound 209] | 2000 nM | – | –
CCCNCCCCNc1nc(NCc2ccc(-c3ccccc3)cc2)c2ncn(C(C)C)c2n1 [Compound 215] | 2000 nM | – | –
CCCN(CCC)CCNc1nc(NCc2ccc(-c3ccccc3)cc2)c2ncn(C(C)C)c2n1 [Compound 210] | 3000 nM | – | –
CC(C)n1cnc2c(NCc3ccc(I)cc3)nc(N[C@H]3CC[C@H](N)CC3)nc21 [Compound 11] | – | – | IC50 (CyclinA/cdk2): 200 nM; IC50 (CyclinE/cdk2): 70 nM

Structure (SMILES) | GI50 (HeLa S-3 cells; Homo sapiens, HeLa S3, 48 h) | GI50 (HeLa S-3 cells) | also measured
CC(=O)N[C@H]1CC[C@H](Nc2nc(NCc3ccc(-c4cccc(C)c4)cc3)c3ncn(C(C)C)c3n2)CC1 [Compound 178] | – | 200 nM | –
CC(C)n1cnc2c(NCc3ccc(-c4cccc(F)c4)nc3)nc(N[C@H]3CC[C@H](NC(=O)CN)CC3)nc21 [Compound 233] | 500 nM | – | –
CC(=O)N[C@H]1CC[C@H](Nc2nc(NCc3ccc(-c4ccsc4)nc3)c3ncn(C(C)C)c3n2)CC1 [Compound 124] | – | – | Cell Types Killed [1]: OVCAR-3; IP Score [1]: 28; SC score [1]: 0; IC50 (CyclinA/cdk2): 2000 nM; IC50 (CyclinE/cdk2): 800 nM
CC(C)n1cnc2c(NCc3ccc(-c4cccc(F)c4)nc3)nc(N[C@H]3CC[C@H](NC(=O)CNC(=O)OC(C)(C)C)CC3)nc21 [Compound 232] | 300 nM | – | –
CC(C)n1cnc2c(NCc3ccc(-c4ccccc4)cc3)nc(N[C@H]3CC[C@H](NC(=O)C4CC4)CC3)nc21 [Compound 261] | – | 300 nM | –
CC(=O)N[C@@H](C)CNc1nc(NCc2ccc(-c3ccccc3)cc2)c2ncn(C(C)C)c2n1 [Compound 108] | 3000 nM | – | IC50 (CyclinA/cdk2): > 10000 nM; IC50 (CyclinE/cdk2): > 10000 nM
CCCN[C@H]1CC[C@H](Nc2nc(NCc3ccc(-c4cc(OC)ccc4OC)cc3)c3ncn(C(C)C)c3n2)CC1 [Compound 155] | 500 nM | 800 nM | –
CC(=O)N[C@H]1CC[C@H](Nc2nc(NCc3ccc(-c4ccco4)nc3)c3ncn(C(C)C)c3n2)CC1 [Compound 206] | – | 200 nM | –
CCCN[C@H]1CC[C@H](Nc2nc(NCCOc3ccc(-c4ccccc4)cc3)c3ncn(C(C)C)c3n2)CC1 [Compound 250] | – | 6000 nM | –
COc1cccc(-c2ccc(CNc3nc(N[C@H]4CC[C@H](NC(C)=O)CC4)nc4c3ncn4C(C)C)cc2)c1 [Compound 180] | – | 300 nM | –
CC(C)n1cnc2c(NCc3ccc(-c4ccccc4)cc3)nc(N[C@H]3CC[C@H](N4C(=O)CCC4=O)CC3)nc21 [Compound 262] | – | 300 nM and 200 nM and 500 nM | –
CC(=O)N[C@H]1CC[C@H](Nc2nc(NCc3ccc(-c4ccc(F)cc4)cc3)c3ncn(C(C)C)c3n2)CC1 [Compound 102] | – | – | IC50 (CyclinA/cdk2): > 10000 nM; IC50 (CyclinE/cdk2): 4000 nM
CCN(C(C)=O)[C@H]1CC[C@H](Nc2nc(NCc3ccc(-c4ccccc4)cc3)c3ncn(C(C)C)c3n2)CC1 [Compound 267] | – | 800 nM and 600 nM | –
CC(C)n1cnc2c(NCCc3ccc(-c4ccccc4)cc3)nc(N[C@H]3CC[C@H](N)CC3)nc21 [Compound 239] | 6000 nM | – | –
CC(C)n1cnc2c(NCc3ccc(-c4cccc(F)c4)nc3)nc(N[C@H]3CC[C@H](NC(=O)[C@H](C)NC(=O)OC(C)(C)C)CC3)nc21 [Compound 230] | 300 nM | – | –
CC(=O)N[C@H]1CC[C@H](Nc2nc(NCc3ccc(-c4cc(C)cs4)cc3)c3ncn(C(C)C)c3n2)CC1 [Compound 161] | – | 200 nM | –
CC(C)n1cnc2c(NCCc3ccc(-c4ccsc4)cc3)nc(N[C@H]3CC[C@H](NC(=O)OC(C)(C)C)CC3)nc21 [Compound 242] | – | > 10000 nM | –
CC(=O)N[C@H]1CC[C@H](Nc2nc(NCc3ccc(-c4cccs4)cc3)c3ncn(C(C)C)c3n2)CC1 [Compound 112] | – | – | Cell Types Killed [1]: OVCAR-3; IP Score [1]: 18; SC score [1]: 2; IC50 (CyclinA/cdk2): 2000 nM; IC50 (CyclinE/cdk2): 2000 nM
CN1CC[C@H](c2c(O)cc(O)c3c(=O)cc(-c4ccccc4Cl)oc23)[C@H](O)C1 [Flavopiridol, reference compound] | 180 nM | – | –
CC(C)n1cnc2c(NCc3ccc(-c4cccc(Cl)c4)cc3)nc(N[C@H]3CC[C@H](N)CC3)nc21 [Compound 109] | – | – | IC50 (CyclinA/cdk2): 600 nM; IC50 (CyclinE/cdk2): 100 nM
CC(C)n1cnc2c(NCc3ccc(-c4ccoc4)cc3)nc(N[C@H]3CC[C@H](N)CC3)nc21 [Compound 164] | 200 nM | – | –
CCCN[C@H]1CC[C@H](Nc2nc(NCc3ccc(-c4cc(C)cs4)cc3)c3ncn(C(C)C)c3n2)CC1 [Compound 162] | 200 nM | – | –
CC(C)n1cnc2c(NCc3ccc(-c4cccc(F)c4)nc3)nc(N[C@H]3CC[C@H](NC(=O)[C@H](C)N)CC3)nc21 [Compound 231] | 40 nM | – | –
CCCN(CCC)[C@H]1CC[C@H](Nc2nc(NCc3ccc(-c4cc(C)cc(C)c4)cc3)c3ncn(C(C)C)c3n2)CC1 [Compound 152] | – | 700 nM and 300 nM | –
Cc1ccc(-c2ccc(CNc3nc(N[C@H]4CC[C@H](N)CC4)nc4c3ncn4C(C)C)cc2)s1 [Compound 157] | 500 nM | – | –
COC(=O)N[C@H]1CC[C@H](Nc2nc(NCc3ccc(-c4ccccc4)cc3)c3ncn(C(C)C)c3n2)CC1 [Compound 259] | – | 300 nM and 700 nM | –
